These results are taken from US20080188528A1, “Modulators of C3a receptor and methods of use thereof” (priority 2006, published 2008).

Where a name gives a salt, the structure may show the parent alone. Where only a bound is given, the exact number is not on record here.

The target in the first assay is T1, human C3a receptor (C3aR) (Homo sapiens, UniProt Q16581).
T1 construct: expressed in transfected cells
T1 sequence (Q16581 1-482): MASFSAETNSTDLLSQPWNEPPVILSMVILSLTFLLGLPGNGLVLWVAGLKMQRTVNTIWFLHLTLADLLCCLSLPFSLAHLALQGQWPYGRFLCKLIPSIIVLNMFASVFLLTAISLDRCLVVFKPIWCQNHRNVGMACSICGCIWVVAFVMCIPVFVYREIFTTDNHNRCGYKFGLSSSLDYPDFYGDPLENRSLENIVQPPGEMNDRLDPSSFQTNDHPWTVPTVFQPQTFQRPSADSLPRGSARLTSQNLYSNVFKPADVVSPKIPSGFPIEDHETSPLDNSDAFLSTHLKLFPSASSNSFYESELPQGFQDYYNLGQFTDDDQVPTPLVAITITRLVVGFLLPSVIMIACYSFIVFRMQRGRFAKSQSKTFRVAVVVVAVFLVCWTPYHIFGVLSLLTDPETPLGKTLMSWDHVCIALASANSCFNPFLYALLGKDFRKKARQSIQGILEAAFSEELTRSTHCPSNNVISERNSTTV
Briefly: Inhibition of human [125I]-C3a binding to human C3a receptor (SPA, membranes of HEK293 cells expressing recombinant C3aR). As to conditions: 0.1 nM [125I]-C3a, 3 hours at room temperature; Table 1. As for the experimental part:
Inhibition of human [^125I]-C3a binding to human C3a receptor
Binding of human [^125I]-C3a to human C3a receptor (C3aR) was done using cell membranes from HEK293 cells stably expressing recombinant C3aR, in a homogeneous scintillation proximity assay (SPA). The C3aR cell membranes were pre-coupled over-night at 4° C. to WGA-PVT SPA beads (Amersham) at a ratio of 10 μg cell membrane to 0.5 mg beads/assay. Assay was performed in 96-well microtiter Optiplates (Packard) by mixing coupled beads and 0.1 nM [^125I]-C3a (2200 Ci/mmol, Perkin Elmer Life Sciences), in a total volume of […] binding buffer (20 mM HEPES, pH 7.4, 125 mM NaCl, 5 mM KCl, 1 mM CaCl2, 1 mM MgCl2, 0.25% BSA, 0.2% CHAPS). Test compounds were diluted in DMSO and were tested for their inhibitory potential in the assay (final concentration≦1% DMSO). Incubation was done for 3 hours at room temperature followed by reading in a TopCount scintillation microplate reader. Non-specific binding was determined by adding 1 μM unlabeled C3a (Calbiochem) to the assay mixture. Calculation of the IC50 was done as above using a nonlinear least square fitting program, with Graphpad Prism.
Usually IC50 stands for the midpoint of a concentration-inhibition curve. With `N=C(N)NCCC[C@H](NC(=O)c1cccn(Cc2cccc(Cc3ccccc3)c2)c1=O)C(=O)O` [Compound 24, (2S)-2-({[1-(3-benzylbenzyl)-2-oxo-1,2-dihydropyridin-3-yl]carbonyl}amino)-5-carbamimidamidopentanoic acid•TFA], the IC50 lay within 50 to 500 nM.
Take `N=C(N)NCCC[C@H](NC(=O)c1cccn(Cc2ccc(Cc3ccccc3)cc2)c1=O)C(=O)O` [Compound 25, (2S)-2-({[1-(4-benzylbenzyl)-2-oxo-1,2-dihydropyridin-3-yl]carbonyl}amino)-5-carbamimidamidopentanoic acid•TFA]: the IC50 fell in the range of 50 to 500 nM.
Consider `N=C(N)NCCC[C@H](NC(=O)c1cccn(Cc2ccccc2-c2cccc3ccccc23)c1=O)C(=O)O` [Compound 26, (2S)-5-carbamimidamido-2-[({1-[2-(1-naphthyl)benzyl]-2-oxo-1,2-dihydropyridin-3-yl}carbonyl)amino]pentanoic acid•TFA], for which the IC50 was less than 50 nM.
As to `N=C(N)NCCC[C@H](NC(=O)c1cccn(Cc2ccccc2-c2ccc3ccccc3c2)c1=O)C(=O)O` [Compound 27, (2S)-5-carbamimidamido-2-[({1-[2-(2-naphthyl)benzyl]-2-oxo-1,2-dihydropyridin-3-yl}carbonyl)amino]pentanoic acid•TFA], the IC50 is less than 50 nM.
Still for that read-out and setting: for `CC(C)c1ccccc1-c1ccccc1Cn1cccc(C(=O)N[C@@H](CCCNC(=N)N)C(=O)O)c1=O` [Compound 28, (2S)-5-carbamimidamido-2-[({1-[(2′-isopropylbiphenyl-2-yl)methyl]-2-oxo-1,2-dihydropyridin-3-yl}carbonyl)amino]pentanoic acid•TFA] the value was less than 50 nM; for `CC(C)c1cccc(-c2ccccc2Cn2cccc(C(=O)N[C@@H](CCCNC(=N)N)C(=O)O)c2=O)c1` [Compound 29, (2S)-5-carbamimidamido-2-[({1-[(3′-isopropylbiphenyl-2-yl)methyl]-2-oxo-1,2-dihydropyridin-3-yl}carbonyl)amino]pentanoic acid•TFA], less than 50 nM.
The same measure, in the same setting: the value for `CC(C)c1ccc(-c2ccccc2Cn2cccc(C(=O)N[C@@H](CCCNC(=N)N)C(=O)O)c2=O)cc1` [Compound 30, (2S)-5-carbamimidamido-2-[({1-[(4′-isopropylbiphenyl-2-yl)methyl]-2-oxo-1,2-dihydropyridin-3-yl}carbonyl)amino]pentanoic acid•TFA] was 50 to 500 nM; that for `N=C(N)NCCC[C@H](NC(=O)c1cccn(Cc2ccccc2-c2ccc(F)cc2)c1=O)C(=O)O` [Compound 31, (2S)-5-carbamimidamido-2-[({1-[(4′-fluorobiphenyl-2-yl)methyl]-2-oxo-1,2-dihydropyridin-3-yl}carbonyl)amino]pentanoic acid•TFA] was less than 50 nM.
Still for that read-out and setting: the value for `N=C(N)NCCC[C@H](NC(=O)c1cccn(-c2ccc3ccccc3c2)c1=O)C(=O)O` [Compound 32, (2S)-5-carbamimidamido-2-({[1-(2-naphthyl)-2-oxo-1,2-dihydropyridin-3-yl]carbonyl}amino)pentanoic acid•TFA] was 50 to 500 nM.
`N=C(N)NCCC[C@H](NC(=O)c1cccn(-c2ccccc2)c1=O)C(=O)O` [Compound 33, (2S)-5-carbamimidamido-2-{[(2-oxo-1-phenyl-1,2-dihydropyridin-3-yl)carbonyl]amino}pentanoic acid•TFA]: the 50% inhibitory concentration (IC50) was in the range of 500 to 20000 nM.
On to `N=C(N)NCCC[C@H](NC(=O)c1cccn(-c2ccc(-c3ccccc3)cc2)c1=O)C(=O)O` [Compound 34, (2S)-2-{[(1-biphenyl-4-yl-2-oxo-1,2-dihydropyridin-3-yl)carbonyl]amino}-5-carbamimidamidopentanoic acid•TFA], for which the concentration for half-maximal inhibition (IC50) lay in the range of 500 to 20000 nM.
Consider `Cc1ccc(C(=O)N[C@@H](CCCNC(=N)N)C(=O)O)c(=O)n1Cc1ccccc1` [Compound 35, (2S)-2-{[(1-benzyl-6-methyl-2-oxo-1,2-dihydropyridin-3-yl)carbonyl]amino}-5-carbamimidamidopentanoic acid•TFA], for which the IC50 fell in the range of 50 to 500 nM.
Turning to `N=C(N)NCCC[C@H](NC(=O)c1ccc(-c2ccccc2)n(Cc2ccccc2)c1=O)C(=O)O` [Compound 36, (2S)-2-{[(1-benzyl-2-oxo-6-phenyl-1,2-dihydropyridin-3-yl)carbonyl]amino}-5-carbamimidamidopentanoic acid•TFA], the IC50 fell in the range of 500 to 20000 nM.
As for `N=C(N)NCCC[C@H](NC(=O)c1cccn(CC(=O)N(c2ccccc2)c2ccccc2)c1=O)C(=O)O` [Compound 37, (2S)-5-carbamimidamido-2-[({1-[2-(diphenylamino)-2-oxoethyl]-2-oxo-1,2-dihydropyridin-3-yl}carbonyl)amino]pentanoic acid•TFA], the IC50 is 50 to 500 nM.
Regarding `N=C(N)NCCC[C@H](NC(=O)c1cccn(Cc2cccc(Cl)c2)c1=O)C(=O)O` [Compound 38, (2S)-5-carbamimidamido-2-({[1-(3-chlorobenzyl)-2-oxo-1,2-dihydropyridin-3-yl]carbonyl}amino)pentanoic acid•TFA], the IC50 is less than 50 nM.
On to `N=C(N)NCCC[C@H](NC(=O)c1cccn(Cc2cccc(F)c2)c1=O)C(=O)O` [Compound 39, (2S)-5-carbamimidamido-2-({[1-(3-fluorobenzyl)-2-oxo-1,2-dihydropyridin-3-yl]carbonyl}amino)pentanoic acid•TFA], for which the IC50 is less than 50 nM.

The same assay, now with this note: 0.1 nM [125I]-C3a, 3 hours at room temperature; Table 2.
`N=C(N)NCCC[C@H](NC(=O)c1cccn(C(c2ccccc2)c2ccccc2)c1=O)C(=O)O` [Compound 40, (2S)-5-carbamimidamido-2-({[1-(diphenylmethyl)-2-oxo-1,2-dihydropyridin-3-yl]carbonyl}amino)pentanoic acid•TFA]: the IC50 is less than 50 nM.
As for `N=C(N)NCCC[C@@H](NC(=O)c1cccn(C(c2ccccc2)c2ccccc2)c1=O)C(=O)O` [Compound 41, (2R)-5-carbamimidamido-2-({[1-(diphenylmethyl)-2-oxo-1,2-dihydropyridin-3-yl]carbonyl}amino)pentanoic acid•TFA], the concentration for half-maximal inhibition (IC50) was less than 50 nM.
Still for that read-out and setting: for `Cc1ccccc1C(c1ccccc1C)n1cccc(C(=O)N[C@@H](CCCNC(=N)N)C(=O)O)c1=O` [Compound 42, (2S)-2-[({1-[bis(2-methylphenyl)methyl]-2-oxo-1,2-dihydropyridin-3-yl}carbonyl)amino]-5-carbamimidamidopentanoic acid•TFA] the value was less than 50 nM; for `Cc1cccc(C(c2cccc(C)c2)n2cccc(C(=O)N[C@@H](CCCNC(=N)N)C(=O)O)c2=O)c1` [Compound 43, (2S)-2-[({1-[bis(3-methylphenyl)methyl]-2-oxo-1,2-dihydropyridin-3-yl}carbonyl)amino]-5-carbamimidamidopentanoic acid], less than 50 nM.
With `N=C(N)NCCC[C@H](NC(=O)c1cccn(C(c2ccc(F)cc2)c2ccc(F)cc2)c1=O)C(=O)O` [Compound 44, (2S)-2-[({1-[bis(4-fluorophenyl)methyl]-2-oxo-1,2-dihydropyridin-3-yl}carbonyl)amino]-5-carbamimidamidopentanoic acid•TFA], the IC50 is less than 50 nM.
On to `N=C(N)NCCC[C@H](NC(=O)c1cccn(C(c2cccc(F)c2)c2cccc(F)c2)c1=O)C(=O)O` [Compound 45, (2S)-2-[({1-[bis(3-fluorophenyl)methyl]-2-oxo-1,2-dihydropyridin-3-yl}carbonyl)amino]-5-carbamimidamidopentanoic acid•TFA], for which the IC50 was less than 50 nM.
For the compound `N=C(N)NCCC[C@H](NC(=O)c1cccn(C(c2ccccc2F)c2ccccc2F)c1=O)C(=O)O` [Compound 46, (2S)-2-[({1-[bis(2-fluorophenyl)methyl]-2-oxo-1,2-dihydropyridin-3-yl}carbonyl)amino]-5-carbamimidamidopentanoic acid•TFA], the IC50 is less than 50 nM.
For `Cc1cc(C)cc(C(c2cc(C)cc(C)c2)n2cccc(C(=O)N[C@@H](CCCNC(=N)N)C(=O)O)c2=O)c1` [Compound 47, (2S)-2-[({1-[bis(3,5-dimethylphenyl)methyl]-2-oxo-1,2-dihydropyridin-3-yl}carbonyl)amino]-5-carbamimidamidopentanoic acid•TFA], the IC50 was less than 50 nM.
Turning to `N=C(N)NCCC[C@H](NC(=O)c1cccn(C(c2cccc(C(F)(F)F)c2)c2cccc(C(F)(F)F)c2)c1=O)C(=O)O` [Compound 48, (2S)-2-{[(1-{bis[3-(trifluoromethyl)phenyl]methyl}-2-oxo-1,2-dihydropyridin-3-yl)carbonyl]amino}-5-carbamimidamidopentanoic acid•TFA], the IC50 is less than 50 nM.
